Measurements reported in paper PMC7377361, “Pressurized DNA state inside herpes capsids—A novel antiviral target” (PLoS Pathogens, 2020).
Where no end group is shown, it is not given here.

Legend:
[1] = test system: DNA packaged in HSV-1 virion; test: SAXS of HSV-1 virions with added compound; conditions: HSV-1 virions in TM-buffer, 37°C
Protocol: In the third SAXS screening step, we added the selected compounds to whole virions (enveloped capsids) in TM-buffer to verify that the compounds penetrate the lipid envelope, tegument protein layer, and capsid wall. […] Both C-capsids and virions have a well-resolved X-ray scattering peak corresponding to diffraction from packaged DNA[60] used for ds determination. […] During HSV-1 replication, it takes approximately 1 h for HSV-1 to adsorb to a cell surface and an additional 2–4 h for viral capsids to be transported, once fused with a cell membrane, to a cell nucleus where DNA is ejected from capsids. [HSV-1 replication dynamics in cell culture were verified separately and were also verified elsewhere[41]]. […] Compound concentrations in this SAXS measurements of virions were the same as in the SAXS measurements of C-capsids above, with virion concentration of 10^13 pfu/mL.
Vero cells were infected with an HSV-1 KOS strain overnight (21 h at 37°C) at a MOI of 0.1 PFU per cell. […] The concentrations of the compounds added to induce DNA condensation were calculated as described above.
All SAXS measurements of viral capsids were conducted at a concentration of 10^13 viral particles per mL (the highest technically achievable capsid concentration). […] Samples were measured in the temperature range of 15–37°C, and the sample temperature was controlled with a Peltier device with ± 0.5°C accuracy. […]

[2] = test system: GFP-labeled HSV-1 virions; test: Binding of GFP-HSV-1 virions to the cell surface (confocal FM); type: cell-based; conditions: compound added to cell culture, then GFP-labeled HSV-1 virions
Source text: This likely occurs due to compounds’ high positive charge leading to electrostatic binding of polycations to negatively charged glycoprotein receptors on the cell membrane, such as heparansulfate proteoglycans (HSPG)[75]. Optimizing compound permeability into cells can be facilitated by e.g. prodrug approach, lipid vesicle delivery, and nanoparticle delivery, as well as other pathways. Compound permeability will be optimized in the future. […] Furthermore, choosing a reconstituted nuclei system for the MOA-assay (as opposed to infecting a cell culture) provides the benefit of isolating the effect of the compound on the single step of viral DNA ejection while avoiding interference from other processes occurring within the cell during viral replication.
Vero cell monolayers grown on chamber slides (Lab-Tek) were infected with a GFP-expressing HSV-1(K26GFP) at a MOI of 0.1 PFU per cell. Vero cells were also incubated with the same virus that was previously treated with different concentrations of the compounds to condense the viral DNA. The concentration of the compounds was calculated as described above. […]
Supplementary file ppat.1008604.s003.pdf: S2 Fig Effect of the compounds on the binding of HSV-1 virions to the cell surface during infection. […] Cells were fixed at 2 hpi and assessed by the presence of a GFP virus signal (green). […]

Row | Compound | DNA-DNA interaxial spacing ds [1] | virus adsorption to the cell [2]
1 | RRRRR [Arg^5+] | below 31 Å | prevents virus adsorption to the cell
2 | NCCCN(CCCN)CCCCN(CCCN)CCCN [DAB-Am-4] | below 31 Å | prevents virus adsorption to the cell
